Test results taken from ChEMBL document CHEMBL1130933, “Structure-based design of N-[2-(1-piperidinylethyl)]-N'-[2-(5-bromopyridyl)]-thiourea and N-[2-(1-piperazinylethyl)]-N'-[2-(5-bromopyridyl)]-thiourea as potent non-nucleoside inhibitors of HIV-1 reverse transcriptase” (Bioorg Med Chem Lett, 1998).

Columns and labels:
Assay type in all cases: functional
[1] = Inhibitory effect on p24 production in HIV-infected peripheral blood mononuclear cells.; conditions: Homo sapiens
[2] = Compound was evaluated for cellular proliferation (on viability of peripheral blood mononuclear cells) using microculture tetrazolium assay (MTA).; conditions: Homo sapiens
[3] = Selective index was evaluated from inhibitory concentrations of compound

SMILES | IC50 [1] [nM] | IC50 [2] [nM] | Selectivity index [3]
Cc1cn([C@H]2C[C@H](N=[N+]=[N-])[C@@H](CO)O2)c(=O)[nH]c1=O [ZIDOVUDINE] | 6 | 50000 | –
S=C(NCCc1ccccn1)Nc1ccc(Br)cn1 [TROVIRDINE] | 7 | > 100000 | > 10000
S=C(NCCN1CCNCC1)Nc1ccc(Br)cn1 | 2 | > 100000 | > 50000
S=C(NCCN1CCCCC1)Nc1ccc(Br)cn1 | < 1 | > 100000 | > 100000
